Data from patent publication US20230192703A1, “Polycyclic amide derivative as CDK9 inhibitor, preparation method therefor and use thereof” (Suzhou AlphaMa Biotechnology Co., Ltd., priority 2020, published 2023).

Tests used:
CDK9 kinase = molecular target: T1, CDK9 kinase (Homo sapiens, UniProt P50750); assay: Inhibitory effect on the kinase activity of CDK9 in vitro; assay type: biochemical; conditions: CDK9 kinase (Millipore), CTD3 substrate polypeptide, Caliper
T1 construct: purchased Millipore 14-685M
T1 sequence (P50750 whole entry): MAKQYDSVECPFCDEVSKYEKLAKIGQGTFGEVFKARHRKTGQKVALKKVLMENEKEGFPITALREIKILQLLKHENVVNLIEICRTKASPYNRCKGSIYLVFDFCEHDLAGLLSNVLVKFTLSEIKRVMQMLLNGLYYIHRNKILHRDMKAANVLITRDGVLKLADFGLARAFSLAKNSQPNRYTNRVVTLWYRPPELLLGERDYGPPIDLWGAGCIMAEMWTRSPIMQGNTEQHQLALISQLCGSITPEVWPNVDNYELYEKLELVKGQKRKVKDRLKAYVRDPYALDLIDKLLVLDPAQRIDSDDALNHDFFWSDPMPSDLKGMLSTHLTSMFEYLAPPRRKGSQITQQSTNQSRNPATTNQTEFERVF
T1 sequence (O60563 whole entry partner): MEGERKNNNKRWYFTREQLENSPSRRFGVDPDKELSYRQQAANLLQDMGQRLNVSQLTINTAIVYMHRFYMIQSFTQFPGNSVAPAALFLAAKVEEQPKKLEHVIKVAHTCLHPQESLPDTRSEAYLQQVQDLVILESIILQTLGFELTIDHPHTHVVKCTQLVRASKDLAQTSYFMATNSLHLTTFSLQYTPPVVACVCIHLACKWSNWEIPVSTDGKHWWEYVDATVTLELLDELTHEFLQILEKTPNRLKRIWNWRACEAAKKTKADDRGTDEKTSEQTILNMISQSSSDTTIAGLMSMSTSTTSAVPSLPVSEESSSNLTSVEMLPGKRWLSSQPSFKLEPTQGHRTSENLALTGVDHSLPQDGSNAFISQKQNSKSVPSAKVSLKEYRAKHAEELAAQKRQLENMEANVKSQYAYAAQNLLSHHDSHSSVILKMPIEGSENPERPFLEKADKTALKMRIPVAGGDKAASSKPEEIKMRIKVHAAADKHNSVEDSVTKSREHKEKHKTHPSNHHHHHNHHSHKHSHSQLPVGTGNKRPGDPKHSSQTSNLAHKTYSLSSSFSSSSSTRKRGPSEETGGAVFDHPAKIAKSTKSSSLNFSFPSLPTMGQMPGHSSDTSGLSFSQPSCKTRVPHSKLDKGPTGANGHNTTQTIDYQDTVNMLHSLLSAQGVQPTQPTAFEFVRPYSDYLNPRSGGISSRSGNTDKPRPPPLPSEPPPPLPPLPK
Description: The detection of the inhibitory effect of the compounds of the present disclosure on the kinase activity of CDK9 in vitro was determined by the following method:
Compound preparation: The compound was accurately weighed and dissolved in DMSO (Sigma, D2650) to a concentration of 100 um for later use. The compound was diluted to 5-fold of a desired highest concentration, and diluted 4-fold into 6 concentration gradients, allowing the final concentration of the compound in the reaction system to be 100, 25, 6.25, 1.56, 0.39, 0.098 nM. 5 ul was taken to a 384-well plate (Corning, 4512).
Detection: Data was collected by Caliper.
Calculation: The IC50 value was calculated by Graphpad prism 5.0 software according to the concentration of the compound and the corresponding signal value.

Mv4-11 cells = assay: Inhibition of the proliferation of Mv4-11 cells (CCK8); assay type: cell-based; conditions: Mv4-11 cell proliferation, CCK8 OD450
Description: The inhibition effect of the compounds of the present disclosure on the proliferation of Mv4-11 cells (ATCC:CRL-9591TM) in vitro was determined by the following method:
Cell inoculation: Mv4-11 cells with good growing state in logarithmic growth phase were inoculated into a 96-well plate at 20000 cells per well and 50 uL, and cultured at 37° C. and under 5% CO2 condition for 2-4 h. Administration: The compound was diluted with 1640 medium containing 10% FBS and 1% PS: 0.4 uL of the compound with an initial concentration of 1 mM was placed in a dilution plate, each added with 199.6 uL of the above culture medium, and gradiently diluted 4-fold, so that the final concentration in the added cell was 1000, 250, 62.5, 15.625, 3.91, 0.98, 0.24, 0.06 nM. 50 μL of the medium containing the compound was sequentially added, and it was placed in a 37° C., 5% CO2 cell incubator for 48 hours.
Detection: 10 uL CCK8 (Dojindo, CK 04) solution was added to each well, incubated in 37° C. 5% CO2 cell incubator for 2 hours, and then the OD450 value was read by Synegry H1 (BioTek) multimode microplate reader.
Calculation: The IC50 value was calculated using Graphpad prism 5.0 software according to the concentration of the compound and the corresponding signal value.

[1] = system: phosphorylation of RNA pol II Ser2 in Mv4-11 cells; assay: Inhibition of phosphorylation of RNA pol II Ser2 in Mv4-11 cells (SDS-PAGE, FIG. 1); assay type: cell-based; conditions: 6 hours, different concentrations
Description: The inhibition effect of the compounds of the present disclosure on the in vitro Mv4-11 cell RNA pol II Ser 2 was determined by the following method:
Cell inoculation: Mv4-11 cells with good growing state in logarithmic growth phase were inoculated into a six-well plate with 2*10^5 cells/well, and cultured overnight at 37° C. and under 5% CO2 condition.
Administration: The compound was diluted with 2 mL of 1640 medium containing 10% FBS and 1% PS. 2 ul of the medium containing the compound was added to the overnight cultured cells, and it was placed in a 37° C., 5% CO2 cell incubator for 6 hours.
Protein extraction and quantification: Cell suspension was collected and centrifuged at 1000 g for 5 min, the cell culturing medium was discarded, and PBS was added for resuspension and centrifugation; it was repeated three times, the residual liquid was sucked dry, 80 uL cell lysate was added per well, it was placed to ice, shaked for 10 min on a shaker, centrifuged at 12000 g for 5 min, and the supernatant, ie, the total protein solution, was collected; the protein concentration was tested by BCA.

| Structure (SMILES) | IC50 (CDK9 kinase) [nM] | IC50 (Mv4-11 cells; Homo sapiens, MV4-11, 48 h) [nM] | inhibitory effect on the phosphorylation of RNA pol II Ser 2 in Mv4-11 cells [1] | IC50 (Mv4-11 cells; 48 hours) [nM] |
| --- | --- | --- | --- | --- |
| CC(=O)N[C@@H]1CCC[C@H](C(=O)Nc2cc(-c3cc(C(N)=O)n4c3CC(C)(C)C4)ccn2)C1 [Compound 12] | 2.9 | 26 | significant inhibitory effect |  |
| Cn1ccc([C@@H]2CCC[C@H](C(=O)Nc3cc(-c4cnn5c4CC(C)(C)C5)c(Cl)cn3)C2)n1 (single isomer, unassigned) [Compound 22-1-1] | 3.2 | 2.8 | significant inhibitory effect |  |
| CC1(C)Cc2c(-c3cc(NC(=O)[C@H]4C[C@H]5C[C@@H](C(N)=O)C[C@H]5C4)ncc3Cl)cc(C(N)=O)n2C1 [Compound 15-2, (2r,3aR,5s,6aS)-N-(4-(5-carbamoyl-2,2-dimethyl-2,3-dihydro-1H-pyrrolizin-7-yl)-5-chloropyridin-2-yl)octahydropentalene-2,5-dicarboxamide] | 3.7 | 14.3 |  |  |
| C[C@@H](N)C(=O)N1C[C@H]2CC(C(=O)Nc3cc(-c4cnn5c4CC(C)(C)C5)c(Cl)cn3)C[C@H]2C1 (stereo partly drawn) [Compound 6, (3aR,6aS)-2-(D-alanyl)-N-(5-chloro-4-(5,5-dimethyl-5,6-dihydro-4H-pyrrolo[1,2-b]pyrazol-3-yl)pyridin-2-yl)octahydrocyclopenta[c]pyrrole-5-carboxamide] | 3.7 | 5.4 |  |  |
| CC(=O)N1C[C@H]2CC(C(=O)Nc3cc(-c4cnn5c4CC(C)(C)C5)c(Cl)cn3)C[C@H]2C1 (single isomer, unassigned) [Compound 4-2] | 2.9 | 6.8 |  |  |
| Cn1cc([C@@H]2CCC[C@H](C(=O)Nc3cc(-c4cnn5c4CC(C)(C)C5)c(Cl)cn3)C2)cn1 (single isomer, unassigned) [Compound 23-1] | 3.8 | 7.9 |  |  |
| CC(=O)N1C[C@H]2CC(C(=O)Nc3cc(-c4cc(C(N)=O)n5c4CC(C)(C)C5)ccn3)C[C@H]2C1 (single isomer, unassigned) [Compound 32-1] | 4.8 |  |  | 3.5 |
| CC(=O)N[C@@H]1CCC[C@H](C(=O)Nc2cc(-c3cc(C#N)c4n3CC(C)(C)C4)c(F)cn2)C1 [Compound 27, (1S,3R)-3-acetamido-N-(4-(7-cyano-2,2-dimethyl-2,3-dihydro-1H-pyrrolizin-5-yl)-5-fluoropyridin-2-yl)cyclohexane-1-carboxamide] | 2.2 | 3.5 |  |  |
| CC1(C)Cc2c(-c3cc(NC(=O)[C@@H]4C[C@H]5C[C@H](C(N)=O)C[C@H]5C4)ncc3Cl)cc(C(N)=O)n2C1 [Compound 15-1, (2s,3aR,5r,6aS)-N-(4-(5-carbamoyl-2,2-dimethyl-2,3-dihydro-1H-pyrrolizin-7-yl)-5-chloropyridin-2-yl)octahydropentalene-2,5-dicarboxamide] | 10.1 | 7.9 |  |  |
| CC(=O)N1C[C@H]2CC(C(=O)Nc3cc(-c4cc(C#N)n5c4CC(C)(C)C5)c(Cl)cn3)C[C@H]2C1 (single isomer, unassigned) [Compound 7-1] | 3.2 | 17.5 | significant inhibitory effect |  |
| CC(=O)N1CC[C@@]2(CC[C@H](C(=O)Nc3cc(-c4cnn5c4CC(C)(C)C5)c(Cl)cn3)C2)C1 (single isomer, unassigned) [Compound 18-1] | 3.2 | 1.4 |  |  |
| CC(=O)N[C@@H]1C[C@@H]2C[C@H](C(=O)Nc3cc(-c4cc(C#N)n5c4CC(C)(C)C5)c(Cl)cn3)C[C@@H]2C1 (single isomer, unassigned) [Compound 14-2-2] | 10.4 | 44.6 |  |  |
| CC(=O)N1C[C@H]2CC(C(=O)Nc3cc(-c4cc(C(N)=O)n5c4CC(C)(C)C5)c(Cl)cn3)C[C@H]2C1 (single isomer, unassigned) [Compound 8-2] | 3.1 |  |  | 0.4 |
| CC1(C)Cc2c(-c3cc(NC(=O)[C@@H]4CCC[C@@H](c5cccnc5)C4)ncc3Cl)cnn2C1 (single isomer, unassigned) [Compound 20-4] | 2.8 | 0.5 |  |  |
| CC(=O)N[C@@H]1CCC[C@H](C(=O)Nc2cc(-c3cc(C(N)=O)c4n3CC(C)(C)C4)c(F)cn2)C1 [Compound 31, 5-(2-((1S,3R)-3-acetylaminocyclohexane-1-carboxamido)-5-fluoropyridin-4-yl)-2,2-dimethyl-2,3-dihydro-1H-pyrrolizine-7-carboxamide] | 4.8 | 9.2 |  |  |
| CC(=O)N[C@@H]1CCC[C@H](C(=O)Nc2cc(-c3cc(C(N)=O)n4c3CC(C)(C)C4)c(Cl)cn2)C1 [Compound 2, 7-(2-((1S,3R)-3-acetylaminocyclohexane-1-carboxamido)-5-chloropyridin-4-yl)-2,2-dimethyl-2,3-dihydro-1H-pyrrolizine-5-carboxamide] | 2.8 | 27.6 |  |  |
| C[C@H](N)C(=O)N1C[C@H]2CC(C(=O)Nc3cc(-c4cnn5c4CC(C)(C)C5)c(Cl)cn3)C[C@H]2C1 (stereo partly drawn) [Compound 5, (3aR,6aS)-2-(L-alanyl)-N-(5-chloro-4-(5,5-dimethyl-5,6-dihydro-4H-pyrrolo[1,2-b]pyrazol-3-yl)pyridin-2-yl)octahydrocyclopenta[c]pyrrole-5-carboxamide] | 2.8 | 7.6 |  |  |
